Active and inactive are the calls of the source. Rule as the data show it, for most assays here: actives have a measured EC50 and inactives only a lower limit.
Assays:
[1] = target: T1, Corticotropin-releasing factor receptor 2/Corticotropin-releasing factor-binding protein (Homo sapiens, UniProt P24387+Q13324); experiment: activators of CRF receptor 2 with binding protein – uHTS hits, confirmation (AID 602473); type: functional; details: read-out: EC50_Mean
T1 sequence (Q13324 whole entry): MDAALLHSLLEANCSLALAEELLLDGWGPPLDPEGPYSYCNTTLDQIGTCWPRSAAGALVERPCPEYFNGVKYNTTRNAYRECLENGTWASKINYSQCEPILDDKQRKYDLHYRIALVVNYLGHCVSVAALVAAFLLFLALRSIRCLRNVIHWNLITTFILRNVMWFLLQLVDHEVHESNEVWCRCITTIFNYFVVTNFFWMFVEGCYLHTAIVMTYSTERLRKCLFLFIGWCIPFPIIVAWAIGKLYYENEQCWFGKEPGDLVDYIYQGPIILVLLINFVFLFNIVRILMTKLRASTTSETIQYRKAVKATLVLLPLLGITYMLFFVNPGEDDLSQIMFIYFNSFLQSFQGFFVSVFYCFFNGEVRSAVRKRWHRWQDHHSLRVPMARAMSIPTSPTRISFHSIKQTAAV
T1 sequence (P24387 whole entry): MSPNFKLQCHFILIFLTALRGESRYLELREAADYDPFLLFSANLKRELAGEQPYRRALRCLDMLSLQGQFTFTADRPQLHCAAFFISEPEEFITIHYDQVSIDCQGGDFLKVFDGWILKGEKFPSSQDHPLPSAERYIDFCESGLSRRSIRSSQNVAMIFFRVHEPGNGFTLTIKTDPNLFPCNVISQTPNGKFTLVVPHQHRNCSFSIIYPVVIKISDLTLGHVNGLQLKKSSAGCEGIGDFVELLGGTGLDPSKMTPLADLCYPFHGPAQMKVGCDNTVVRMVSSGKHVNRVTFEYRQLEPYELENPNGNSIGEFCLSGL

[2] = target: T1, Corticotropin-releasing factor receptor 2/Corticotropin-releasing factor-binding protein; experiment: Dose Response confirmation of uHTS hits for small molecule antagonists of the CRF-binding protein and CRF-R2 receptor complex.; type: functional; details: read-out: IC50_Mean
[3] = target: Glyceraldehyde-3-phosphate dehydrogenase (Homo sapiens, UniProt P04406)
Glyceraldehyde-3-phosphate dehydrogenase, sequence (P04406 whole entry): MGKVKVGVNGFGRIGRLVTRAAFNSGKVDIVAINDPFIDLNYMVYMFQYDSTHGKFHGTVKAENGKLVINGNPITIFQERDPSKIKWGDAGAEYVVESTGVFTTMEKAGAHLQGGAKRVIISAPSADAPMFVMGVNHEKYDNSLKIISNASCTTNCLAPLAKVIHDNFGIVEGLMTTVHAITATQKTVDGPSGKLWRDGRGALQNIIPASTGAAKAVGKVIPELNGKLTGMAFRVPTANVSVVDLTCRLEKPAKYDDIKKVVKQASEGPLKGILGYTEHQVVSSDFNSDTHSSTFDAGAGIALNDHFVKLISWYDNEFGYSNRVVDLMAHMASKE

[4] = P. falciparum Dd2 growth inhibitors, dose response, SYBR Green, cherry-picked samples (AID 1159567); type: functional, cell-based
P388/ADR = experiment: cells; type: functional; details: Mus musculus
SN12K1 = experiment: cells; type: functional; details: Homo sapiens
[5] = target: T2, Heat shock factor protein 1 (Mus musculus, UniProt P38532); experiment: inhibition of MG132-induced HSE-luciferase signal, confirmation, cell-based, NIH3T3, luminescence, dose retest (AID 2382); type: functional;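 also: NIH3T3 fibroblasts with HSF1-driven luciferase reporter stressed by proteasome inhibitor MG132; luminescence from HSF1-driven luciferase expression after 8 hours of MG132 stress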
T2 sequence (P38532 whole entry): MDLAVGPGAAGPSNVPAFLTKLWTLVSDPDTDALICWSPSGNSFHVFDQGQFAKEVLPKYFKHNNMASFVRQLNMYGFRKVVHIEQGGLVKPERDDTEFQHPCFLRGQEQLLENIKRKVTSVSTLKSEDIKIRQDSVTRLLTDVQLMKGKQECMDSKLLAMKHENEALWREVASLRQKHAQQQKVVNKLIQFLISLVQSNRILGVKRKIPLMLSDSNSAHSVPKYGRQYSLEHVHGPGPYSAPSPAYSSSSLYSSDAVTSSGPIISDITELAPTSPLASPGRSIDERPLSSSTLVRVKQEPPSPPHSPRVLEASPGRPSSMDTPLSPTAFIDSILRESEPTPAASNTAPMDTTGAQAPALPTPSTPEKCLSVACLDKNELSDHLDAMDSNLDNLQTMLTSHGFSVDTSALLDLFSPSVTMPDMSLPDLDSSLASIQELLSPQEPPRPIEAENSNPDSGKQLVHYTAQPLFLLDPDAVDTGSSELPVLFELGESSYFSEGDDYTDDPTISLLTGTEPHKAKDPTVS

[6] = cytotoxicity toward NIH3T3 fibroblasts, dose response, counter-screen, cell-based, ATP luminescence, mouse fibroblasts (AID 2010); type: functional;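 also: cells exposed to compound for about 90 hours before reading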
[7] = inhibitors of intracellular T. cruzi replication, confirmation, NIH3T3 host cells, beta-gal luminescence (AID 2044); type: functional, cell-based;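 also: intracellular parasites grown in NIH/3T3 mouse fibroblasts as host cells; luminescent beta-galactosidase reporter signal from transgenic T. cruzi replicating inside host cells; inhibitors lower the luminescence signal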
Paired box protein Pax-8 = Paired box protein Pax-8 (Homo sapiens, UniProt Q06710); experiment: inhibitors of PAX8-driven TPO luciferase reporter, dose response, RMG-I cells, cherry-pick (AID 687027); type: functional, cell-based;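 also: luciferase reporter driven by Pax8 target thyroperoxidase promoter measured by SteadyGlo luminescence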
Paired box protein Pax-8, sequence (Q06710 whole entry): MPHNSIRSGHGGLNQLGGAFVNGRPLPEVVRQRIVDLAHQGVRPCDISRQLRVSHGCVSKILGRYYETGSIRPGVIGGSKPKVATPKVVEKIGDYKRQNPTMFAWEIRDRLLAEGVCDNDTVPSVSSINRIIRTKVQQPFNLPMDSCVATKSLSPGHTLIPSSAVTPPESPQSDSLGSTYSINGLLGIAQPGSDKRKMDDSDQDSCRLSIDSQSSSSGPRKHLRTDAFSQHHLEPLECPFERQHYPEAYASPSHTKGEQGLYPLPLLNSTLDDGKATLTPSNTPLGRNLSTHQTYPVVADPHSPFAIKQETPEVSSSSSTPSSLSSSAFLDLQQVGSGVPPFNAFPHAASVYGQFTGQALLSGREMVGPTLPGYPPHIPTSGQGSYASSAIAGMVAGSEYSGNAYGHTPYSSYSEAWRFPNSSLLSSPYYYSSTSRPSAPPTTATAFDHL

[8] = test system: Streptococcus sp. 'group A'; experiment: growth inhibition of control SK(-) GAS strain, dose response, counter-screen for streptokinase expression inhibitor project, luminescence, kanamycin, BacTiterGlo, confirmation (AID 1900); type: functional, organism-based
Streptococcus = experiment: Group A Streptococcus viability loss, dose response, counter-screen for streptokinase expression inhibitor project, luminescence, BacTiterGlo (AID 1915); type: functional, organism-based;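 also: potency for reduction of bacterial viability or growth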
Streptokinase A = target: T3, Streptokinase A (Streptococcus pyogenes serotype M1, UniProt P10520); experiment: S. pyogenes streptokinase expression inhibitors, potency, dose response, plasminogen activation absorbance, OD405 (AID 1914); type: functional, Streptococcus pyogenes M1 GAS;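 also: secreted streptokinase activity via plasminogen activation per viability signal from cell pellet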
T3 sequence (P10520 whole entry): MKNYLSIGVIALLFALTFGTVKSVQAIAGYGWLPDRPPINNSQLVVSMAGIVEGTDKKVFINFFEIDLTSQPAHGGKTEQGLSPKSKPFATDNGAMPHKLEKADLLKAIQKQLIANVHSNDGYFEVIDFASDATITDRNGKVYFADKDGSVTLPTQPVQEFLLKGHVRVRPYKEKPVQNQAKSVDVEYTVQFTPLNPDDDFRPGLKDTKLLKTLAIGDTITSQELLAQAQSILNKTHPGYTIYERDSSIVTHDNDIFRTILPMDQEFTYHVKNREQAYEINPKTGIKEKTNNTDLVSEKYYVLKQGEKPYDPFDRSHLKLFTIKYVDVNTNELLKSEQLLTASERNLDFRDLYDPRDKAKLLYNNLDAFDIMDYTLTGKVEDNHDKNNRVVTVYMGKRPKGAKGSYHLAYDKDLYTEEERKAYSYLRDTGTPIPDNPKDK

[9] = C. albicans growth with fluconazole, confirmation, fluorescence, retest (AID 2467); type: functional, cell-based
[10] = NIH-3T3 fibroblast cytotoxicity, dose response, cytotoxicity control, cell-based, fluorescence, Alamar Blue, secondary assay (AID 2327); type: functional;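 also: NIH-3T3 mouse fibroblasts cultured with fluconazole at 8 µg/mL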

COc1cc(-c2ccc3cc(OC)c(OC)c(OC)c3c2)cc(OC)c1OC
EC50 [1]: > 53 µM (inactive)
IC50 [2]: > 47.1 µM (inactive)

Cc1cc(=O)oc2cc(OCC(=O)Nc3ccc(O)c(C(=O)O)c3)ccc12
IC50 [3]: > 100 µM (not active)

CN(C)CC(=O)N1[C@H](CO)[C@H](c2ccc(C#CC3CCCCC3)cc2)[C@@H]1C#N
AC50 [4]: 8.31 µM (active)

CC1CCN(S(=O)(=O)c2ccc3c(c2)NC(=O)CS3)CC1
EC50 [1]: > 53 µM (inactive)
IC50 [2]: > 47.1 µM (inactive)

CO[C@@H]1CN(C)C(=O)c2cc(NC(=O)Nc3ccc(C(F)(F)F)cc3)ccc2OC[C@@H](C)NC[C@@H]1C
AC50 [4]: 5.92 µM (active)

O=C(NCCCl)O/N=C/c1cccnc1
GI50 (P388/ADR): 52.5 µM (inactive)
GI50 (SN12K1): > 100 µM (inactive)

CN(c1ccccc1)c1ncccn1
EC50 [5]: > 195 µM (not active)

COc1cccc(N2C(=O)C(Cl)=C(N3CCN[C@H](C)C3)C2=O)c1
IC50 [3]: > 50 µM (inconclusive)

O=C(NCc1csc(-c2cccs2)n1)c1ccccc1
EC50 [1]: > 53 µM (inactive)
IC50 [2]: > 47.1 µM (inactive)

COc1cccc(N2CCN(C3=C(Cl)C(=O)N(c4ccnc(Cl)c4)C3=O)CC2)c1
IC50 [3]: > 50 µM (inconclusive)

Cc1cc(C(=O)CN2CCC(C)CC2)c(C)n1-c1ccccc1F
EC50 [6]: > 60 µM (not active)
EC50 [7]: 1.18 µM (active)
EC50 [5]: < 0.16 µM (active)

C#CCSc1nc(C)cc(C(=O)OCC)c1C#N
EC50 [1]: > 53 µM (inactive)
IC50 [2]: > 47.1 µM (inactive)

COc1ccc(S(=O)(=O)Nc2ccc3c(c2)C(=O)N([C@@H](C)CO)C[C@H](C)[C@H](CN(C)Cc2ccc(C(F)(F)F)cc2)OCCCC[C@@H](C)O3)cc1
AC50 (Paired box protein Pax-8): 7.68 µM (active)

N#Cc1ccc(CSC2=NCCN2)cc1
EC50 [1]: > 53 µM (inactive)
IC50 [2]: > 47.1 µM (inactive)

COc1cc(C(=O)NCC(c2cccs2)N2CCOCC2)ccc1OCc1ccc(Cl)cc1 (stereo not drawn)
AC50 (Paired box protein Pax-8): 22 µM (active)

COCCNC(=O)C(OC(=O)c1cccs1)c1ccccc1 (stereo not drawn)
EC50 [5]: > 195 µM (not active)

Cc1ccc(S(=O)(=O)Nc2ccc3c(c2)C(=O)N([C@H](C)CO)C[C@H](C)[C@H](CN(C)C(=O)c2ccccc2)OCCCC[C@H](C)O3)cc1
AC50 (Paired box protein Pax-8): 19.4 µM (active)

CCc1cc[n+](CC(=O)Nc2ccc(Cl)cc2Cl)cc1
EC50 [5]: > 195 µM (not active)

C[C@H]1CN([C@@H](C)CO)C(=O)c2ccccc2-c2ccccc2CO[C@H]1CN(C)Cc1ccc(Oc2ccccc2)cc1
AC50 [4]: 4.26 µM (active)

CC(=O)C1=C(O)C(=O)N(Cc2cccnc2)C1c1ccc(O)cc1 (stereo not drawn)
EC50 [5]: > 195 µM (not active)

CCOC(=O)C1CCN(C(=O)c2ccc3c(=O)n4nc(Nc5cc(C)ccc5C)sc4nc3c2)CC1
EC50 [8]: 9.44 µM (active)
EC50 (Streptococcus): 37.4 µM (active)
EC50 (Streptokinase A): > 150 µM (not active)
EC50 [9]: 2.55 µM (active)
EC50 [10]: > 150 µM (inactive)

Source: ChEMBL document CHEMBL1201862, “PubChem BioAssay data set” (2004)
